Marks after values point to notes of the source that are not given here.
Key:
caspase-3 = experiment: Caspase-3 activity, colorimetric substrate Ac-DEVD-pNA; type: cell-based, human; conditions: Hep G2, 48 h, control 0.38
Experimental: (§1) The cell line was grown in RPMI-1640 medium supplemented with L-glutamine 2 mM, HEPESNa 25 mM, penicillin 100 U/mL, streptomycin 100 μg/mL and 10% […] (FBS) at 37 °C in a humidified atmosphere containing 5% CO2. Hep G2 cells were seeded at 1 × 10^6 cells/mL and sub cultured every 2–3 days after 60–80% confluence was reached. To prepare the lysates cells attached to the culture plate were scraped off with a cell scraper and collected in a 1.5 mL tube by centrifugation. The cell pellets were rinsed with PBS, suspended in sterile water, and then lysed by sonication. For each experiment, the cells were treated separately with increasing concentrations of silibinin derivatives (0, 25, 50, 75, 100, 125, 150, 175 and 200 μM) and incubated for 48 h.
(§2) The activities of caspase-3 and 9 were measured using colorimetric substrates. Cells were added to a lysis buffer (100 mM HEPES [pH 7.5], 0.1% CHAPS, 1 mM PMSF, 10 mM MDTT, 1 mM EDTA) and placed on ice for 30 min. After the cells were centrifuged at 10,000 × g for 10 min at 4 °C, 50 μg of protein from the supernatants was added to each of the caspase substrates. The colorimetric substrates for caspase-3 and 9 were Ac-DEVD-pNA (Asp-Glu-Val-Asp-pNA) and Ac-LEHD-pNA (N-acetyl-Leu-Glu-His-Asp-pNA), respectively. After a 2 h incubation, to measure p-nitroanilide absorbance was determined at 405 nm ([34]).

[1] = target: T1, glucosyl ceramide synthase (GCS) (Homo sapiens, UniProt Q16739); experiment: GCS activity assay (C6-NBD-ceramide, HPLC); type: cell-based; conditions: for GCS activity, effect of treatment: Hep G2, 0-200 µM
T1 construct: endogenous in cells; host or cells: Hep G2
T1 sequence (Q16739 1-394): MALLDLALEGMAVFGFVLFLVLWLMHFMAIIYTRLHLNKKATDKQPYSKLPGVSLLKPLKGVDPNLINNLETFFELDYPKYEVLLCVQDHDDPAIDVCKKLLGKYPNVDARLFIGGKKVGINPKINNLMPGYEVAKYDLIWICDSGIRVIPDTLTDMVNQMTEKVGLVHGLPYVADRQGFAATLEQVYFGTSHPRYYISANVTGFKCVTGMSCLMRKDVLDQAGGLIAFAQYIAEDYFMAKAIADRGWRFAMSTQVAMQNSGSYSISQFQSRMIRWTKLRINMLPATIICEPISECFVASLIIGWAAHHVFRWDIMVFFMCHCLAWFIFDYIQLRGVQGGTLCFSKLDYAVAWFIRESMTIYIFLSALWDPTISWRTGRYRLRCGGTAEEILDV
Experimental: as §1
To determine GCS activities, the fluorescent acceptor substrate C6-4-nitrobenzo-2-oxa-1,3-diazole (NBD)-ceramide and a normal-phase HPLC were used. Acceptor substrate, 50 pM of C6-NBD-Cer and 6.5 nM of lecithin were mixed in 100 µL of ethanol and then the solvent was evaporated. Next, 10 µL of water was added and the mixture was sonicated to form liposomes. For the GCS assay, 50 µL of reaction mixture contains 500 µM UDP-Glc, 1mM EDTA, 10 µL of C6-NBD-Cer liposome and 20 µL of an appropriate amount of enzyme in lysis buffer. Addition of conduritol B epoxide (CBE) at 2.5 mM is effective at inhibiting the glycosidase activity. Standard assays were carried out at 37 °C for 1 h. The reaction was stopped by adding 200 µL of chloroform/methanol (2:1, v/v). After a few seconds of vortexing, 5 µL of 500 µM KCl was added and then centrifuged. After the organic phase had dried up, lipids were dissolved in 200 µL of isopropyl alcohol/n-hexane/H2O (55:44:1) and then transferred to a glass vial in auto sampler. A 100 µL aliquot of sample was automatically loaded onto a normal-phase column (Intersil SIL 150A-5, 4.6 x 250 mm, GL Sciences, Japan) and eluted with isopropyl alcohol/n-hexane/H2O (55:44:1) at a flow rate of 2.0 mL/min. Fluorescence was determined using a fluorescent detector (Hitachi L-7480) set to excitation and emission wavelengths of 470 and 530 nm, respectively. The fluorescent peaks were identified by comparing their retention times with those of standards ([37]).

Hep G2 cells [2] = experiment: Cell viability, MTT colorimetric assay; type: cell-based; conditions: Hep G2, 48 h
Experimental: The cell line was grown in RPMI-1640 medium supplemented with L-glutamine 2 mM, HEPESNa 25 mM, penicillin 100 U/mL, streptomycin 100 μg/mL and 10% phosphate-buffered saline (FBS) at 37 °C in a humidified atmosphere containing 5% CO2. Hep G2 cells were seeded at 1 × 10^6 cells/mL and sub cultured every 2–3 days after 60–80% confluence was reached. […] For each experiment, the cells were treated separately with increasing concentrations of silibinin derivatives (0, 25, 50, 75, 100, 125, 150, 175 and 200 μM) and incubated for 48 h.
To measure cell viability, the 3-(4,5-dimethylthiazol-2-yl)-2,5-diphenyl tetrazolium bromide (MTT) colorimetric assay was performed as published ([32], [33]). Briefly, Hep G2 cells were seeded onto 96 flat bottom well plates (50 × 10^3 cells/well) and grown overnight. After the incubation period with silibinin isomers, cells were washed twice with phosphate-buffered saline solution and incubated with MTT solution at a final concentration of 0.5 mg/mL for 3 h and then lysed in dimethyl sulfoxide. Optical density was measured at 540 nm and the background absorbance measured at 660 nm was subtracted. Each experiment was replicated separately for three times.

caspase-9 = experiment: Caspase-9 activity, colorimetric substrate Ac-LEHD-pNA; type: cell-based, human; conditions: Hep G2, 48 h, control 0.26
Experimental: as §1, §2

Hep G2 cells [3] = experiment: Quantifying of total ceramide (HPLC, NDA derivatisation); type: cell-based, human; conditions: for Ceramide content with respect to control: Hep G2, 50 µM and higher concentrations
Experimental: as §1
Sample (3 µL of cell extract cell lysate) was mixed with 3 µL of an ACDase assay solution (0.2 M citrate–phosphate buffer, pH 4.5, 0.3 M NaCl, 0.2% Igepal CA-630, 10% FBS, 50 ng/µL ACDase) and incubated at 37 °C for 1 h. The reaction was stopped by adding ethanol (1:5) and centrifuged for 5 min at 13,000 × g. 10 µL of the supernatant was transferred into 20 µL of 25 mM sodium borate buffer (pH 9.0) containing 1.25 mM sodium cyanide and 1.25 mM NDA. The reaction mixture was incubated at 50 °C for 10min, diluted with ethanol (1:4), and centrifuged for 5 min at 13,000 × g. 5 µL of the supernatant was applied to high-performance liquid chromatography (HPLC) for analysis. The HPLC system consisted of Waters 600 S controller, 616 pump, 474 scanning fluorescence detector, 717 auto sampler (Waters, Milford, MA) and BetaBasic-C18 (20 cm × 4.6 mm) column with 3 µM particle size (Thermo Electron, Bellefonte, PA) which was not temperature regulated. All chromatographic procedures were carried out at room temperature using a mobile phase of 90% methanol at a flow rate of 1.0 mL/min. The fluorescent derivatives were monitored at the excitation wavelength of 252 nm and the emission wavelength of 483 nm ([35]). […]

Compound	Caspase-3 (ΔOD 405nm) (caspase-3; 25 micro molar)	Caspase-3 (ΔOD 405nm) (caspase-3; 50 micro molar)	Caspase-3 (ΔOD 405nm) (caspase-3; 75 micro molar)	Caspase-3 (ΔOD 405nm) (caspase-3; 100 micro molar)	Caspase-3 (ΔOD 405nm) (caspase-3; 125 micro molar)	Caspase-3 (ΔOD 405nm) (caspase-3; 150 micro molar)	Caspase-3 (ΔOD 405nm) (caspase-3; 175 micro molar)	Caspase-3 (ΔOD 405nm) (caspase-3; 200 micro molar)	GCS activity, effect of treatment [1]	Cell viability (% of control) (Hep G2 cells [2]; 25 micro molar)	Cell viability (% of control) (Hep G2 cells [2]; 50 micro molar)	Cell viability (% of control) (Hep G2 cells [2]; 75 micro molar)	Cell viability (% of control) (Hep G2 cells [2]; 100 micro molar)	Cell viability (% of control) (Hep G2 cells [2]; 125 micro molar)	Cell viability (% of control) (Hep G2 cells [2]; 150 micro molar)	Cell viability (% of control) (Hep G2 cells [2]; 175 micro molar)	Caspase-9 (ΔOD 405nm) (caspase-9; 25 micro molar)	Caspase-9 (ΔOD 405nm) (caspase-9; 50 micro molar)	Caspase-9 (ΔOD 405nm) (caspase-9; 75 micro molar)	Caspase-9 (ΔOD 405nm) (caspase-9; 100 micro molar)	other results
COc1cc([C@H]2Oc3cc([C@H]4Oc5cc(O)cc(O)c5C(=O)[C@@H]4OC(=O)c4cc(O)c(O)c(O)c4)ccc3O[C@@H]2CO)ccc1O [SGA, 3-O-galloyl silybin A]	0.35 ± 0.038 ΔOD 405nm	0.46 ± 0.062 ΔOD 405nm	0.58 ± 0.070 ΔOD 405nm	0.67 ± 0.084 ΔOD 405nm	0.83 ± 0.114 ΔOD 405nm	0.97 ± 0.134 ΔOD 405nm	1.12 ± 0.147 ΔOD 405nm	1.26 ± 0.164 ΔOD 405nm	did not indicate any significant changes	96 + 10.5 % of control	84 + 9.3^* % of control	73 + 10.7^* % of control	63 + 8.9^* % of control	52 + 8.1^* % of control	44 + 6.0^* % of control	38 + 5.7^* % of control	0.23 ± 0.029 ΔOD 405nm	0.40 ± 0.053 ΔOD 405nm	0.55 ± 0.070 ΔOD 405nm	0.86 ± 0.136 ΔOD 405nm	Cell viability (% of control) (Hep G2 cells [2]; 200 micro molar): 33 + 5.1^* % of control; Caspase-9 (ΔOD 405nm) (caspase-9; 125 micro molar): 0.69 ± 0.103 ΔOD 405nm; Caspase-9 (ΔOD 405nm) (caspase-9; 150 micro molar): 0.80 ± 0.124 ΔOD 405nm; Caspase-9 (ΔOD 405nm) (caspase-9; 175 micro molar): 1.19 ± 0.147 ΔOD 405nm; Caspase-9 (ΔOD 405nm) (caspase-9; 200 micro molar): 1.30 ± 0.167 ΔOD 405nm; Ceramide content with respect to control (Hep G2 cells [3]): significant rises
COc1cc([C@@H]2Oc3cc([C@H]4Oc5cc(O)cc(O)c5C(=O)[C@@H]4OC(=O)c4cc(O)c(O)c(O)c4)ccc3O[C@H]2CO)ccc1O [SGB, 3-O-galloyl silybin B]	0.45 ± 0.065 ΔOD 405nm	0.56 ± 0.070 ΔOD 405nm	0.62 ± 0.081 ΔOD 405nm	0.78 ± 0.095 ΔOD 405nm	0.98 ± 0.128 ΔOD 405nm	1.21 ± 0.160 ΔOD 405nm	1.53 ± 0.209 ΔOD 405nm	1.63 ± 0.221 ΔOD 405nm	dose dependent inhibition	91 + 10.0 % of control	78 + 9.5^* % of control	65 + 8.6^* % of control	56 + 7.7^* % of control	49 + 6.9^* % of control	35 + 5.1^* % of control	29 + 4.3^* % of control	0.30 ± 0.048 ΔOD 405nm	0.41 ± 0.053 ΔOD 405nm	0.46 ± 0.046 ΔOD 405nm	0.53 ± 0.077 ΔOD 405nm	GCS activity (% of control) ([1]; Hep G2, 200 µM): 18 % of control; Caspase-9 (ΔOD 405nm) (caspase-9; 125 micro molar): 0.70 ± 0.093 ΔOD 405nm; Caspase-9 (ΔOD 405nm) (caspase-9; 150 micro molar): 0.89 ± 0.108 ΔOD 405nm; Caspase-9 (ΔOD 405nm) (caspase-9; 175 micro molar): 1.18 ± 0.192 ΔOD 405nm; Caspase-9 (ΔOD 405nm) (caspase-9; 200 micro molar): 1.34 ± 0.207 ΔOD 405nm; Ceramide content with respect to control (Hep G2 cells [3]): significant rises; Maximum ceramide level compared to control (Hep G2 cells [3]; Hep G2, 200 µM (the highest dose)): approximately 3.7 fold

From paper PMC5149029, “New Aspects of Silibinin Stereoisomers and their 3-O-galloyl Derivatives on Cytotoxicity and Ceramide Metabolism in Hep G2 hepatocarcinoma Cell Line” (Iranian Journal of Pharmaceutical Research : IJPR, 2016)
